PubChem BioAssay (NCI)
“And” between values parts separate entries of the source, which are not always exact repeats. Identical values can stand only once.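 Protocol summary: plate cells (96-well), add compound at 5 concentrations, incubate 48 h, interpolate endpoints linearly. Here, GI50 denotes the concentration required for 50% inhibition of growth. TGI: concentration producing complete growth inhibition.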

Assays:
Test in all cases: growth of human tumour cells (NCI), 48 h
A549 NSCLC = system: A549 NSCLC
HOP-92 NSCLC = system: HOP-92 NSCLC
MOLT-4 leukemia = system: MOLT-4 leukemia
SN12C renal = system: SN12C renal
KM12 colon = system: KM12 colon
IGROV1 ovarian = system: IGROV1 ovarian
NCI-H460 lung = system: NCI-H460 lung
SNB-75 CNS = system: SNB-75 CNS
HOP-62 NSCLC = system: HOP-62 NSCLC
SW-620 colon = system: SW-620 colon

| SMILES | TGI (A549 NSCLC) | TGI (HOP-92 NSCLC) | TGI (MOLT-4 leukemia) | TGI (SN12C renal) | TGI (KM12 colon) | TGI (IGROV1 ovarian) | TGI (NCI-H460 lung) | TGI (SNB-75 CNS) | TGI (HOP-62 NSCLC) | TGI (SW-620 colon) | GI50 (A549 NSCLC) | GI50 (HOP-92 NSCLC) | GI50 (MOLT-4 leukemia) | GI50 (SN12C renal) | GI50 (KM12 colon) | GI50 (SNB-75 CNS) |
| --- | --- | --- | --- | --- | --- | --- | --- | --- | --- | --- | --- | --- | --- | --- | --- | --- |
| CC(=O)/C=C/C1=C(C)CCCC1(C)CC(C)C (stereo unspecified) | > 100 µM | 37.7 µM | 41.5 µM | 38.5 µM | > 100 µM | > 100 µM | > 100 µM | 93 µM | > 100 µM | 44.1 µM | – | – | – | – | – | – |
| CC1=Nc2ccccc2OC(C)=C1N=Nc1ccc2nc(C)[nH]c2c1 | > 100 µM | > 100 µM | > 100 µM | > 100 µM | > 100 µM | > 100 µM | > 100 µM | > 100 µM | > 100 µM | > 100 µM | – | – | – | – | – | – |
| C[C@]12CCC3C4=C(CCC3C1CCC2=O)C(=O)[C@H]1O[C@H]1C4=O (stereo partly specified) | 26.4 µM | 16.8 µM | 4.32 µM | 7.71 µM | 18.3 µM | 4.74 µM | 23.9 µM | 8.14 µM | 12.8 µM | 4.98 µM | – | – | – | – | – | – |
| O=[N+]([O-])c1cc(C=NC23CC4CC(CC(C4)C2)C3)ccc1Cl | > 100 µM | 60.5 µM | 27 µM | 35.2 µM | 55 µM | 47.5 µM | > 71 µM | > 100 µM | 17.7 µM | 27.7 µM | – | – | – | – | – | – |
| O=C(/C=C/c1ccccc1)C[C@@H](O)C[C@@H]1CC=CC(=O)O1 | 52.2 µM | 16 µM | 12.5 µM | 25.2 µM | 16.5 µM | 31.2 µM | 39.5 µM | > 53.7 µM | 33.7 µM | 5.53 µM | – | – | – | – | – | – |
| S=C(N/N=C(/c1ccccc1)c1ccccn1)N(Cc1ccccn1)Cc1ccccn1 | 2.01 µM | 1.45 µM | 16.1 µM | 3.47 µM | 2.31 µM | 2.03 µM | 4.7 µM | 2.24 µM | 3.17 µM | 7.72 µM | – | – | – | – | – | – |
| CC(=O)c1c2c(c3ccccc3c1O)O[C@@H]1OCC[C@H]21 | > 100 µM | > 100 µM | > 100 µM | > 100 µM | > 100 µM | > 100 µM | > 100 µM | 34.2 µM | > 100 µM | > 100 µM | – | – | – | – | – | – |
| COC(=O)c1c(C)nc2c1cc(O)c1[nH]c(C)c(C)nc12 | > 100 µM | > 100 µM | > 100 µM | > 100 µM | > 100 µM | > 100 µM | > 100 µM | 71.8 µM | 71.7 µM | > 100 µM | – | – | – | – | – | – |
| COc1cccc(Nc2nc(-c3cccs3)nc3cc(OC)c(OC)cc23)c1 | > 100 µM | 51.9 µM | > 100 µM | 53.8 µM | 87.1 µM | 69.3 µM | 79.4 µM | 73.5 µM | 62.7 µM | 52.4 µM | – | – | – | – | – | – |
| Nc1c(-c2ccc(Cl)c(Cl)c2)c2ccc([N+](=O)[O-])cc2c(=O)n1-c1nc2ccccc2s1 | > 43.8 µM | 2.81 µM | > 100 µM | 12.3 µM | > 100 µM | > 100 µM | > 100 µM | 8.23 µM | > 38.6 µM | > 100 µM | – | – | – | – | – | – |
| COc1ccc2[nH]cc(/C=C(/C)c3ccncc3)c2c1 | > 100 µM | > 100 µM and 52.6 µM | 47.9 µM and > 100 µM | > 100 µM | > 100 µM | > 100 µM | 12.5 µM and 22.4 µM | 29.5 µM and 7.19 µM | 53.8 µM | 27.2 µM and > 100 µM | 5.48 µM | 13.3 µM | 2.68 µM | 7.58 µM | 0.796 µM | 4.93 µM |
| Cc1cc(-c2nc3ccc(F)cc3s2)ccc1NC(=O)[C@H](C)N | 24.6 µM | 24.7 µM | 12.8 µM | 28.7 µM | 15.3 µM | 20 µM | 6.09 µM | 25.4 µM | 24.5 µM | 15 µM | – | – | – | – | – | – |
| NC1(c2cc3ccccc3s2)CCCC1 | > 100 µM | > 100 µM | 47.3 µM | > 100 µM | > 100 µM | > 100 µM | > 100 µM | > 100 µM | > 100 µM | > 100 µM | – | – | – | – | – | – |
| CC(=O)Nc1nc(NC(C)=O)c2[nH]c(CO)nc2n1 | > 100 µM | > 100 µM | > 100 µM | > 100 µM | > 100 µM | > 100 µM | > 100 µM | > 100 µM | > 100 µM | > 100 µM | – | – | – | – | – | – |
| N#C/C(=C1/Sc2c(nc[nH]c2=O)N1c1ccccc1)c1nc2ccccc2[nH]1 | > 100 µM | > 100 µM | > 100 µM | > 100 µM | > 100 µM | > 100 µM | > 100 µM | > 100 µM | > 100 µM | > 100 µM | – | – | – | – | – | – |
| C=C1CCN2CC[C@@H](OC(=O)/C(C)=C\C)[C@@H]12 | > 100 µM | > 100 µM | > 100 µM | > 100 µM | > 100 µM | > 100 µM | > 100 µM | > 100 µM | > 100 µM | > 100 µM | – | – | – | – | – | – |
| COc1cc(S(=O)(=O)Nc2nc(-c3ccc(N4C(=O)C(CC(=O)O)SC4c4cccs4)cc3)cs2)ccc1Cl (stereo unspecified) | > 100 µM | 89.5 µM | 64.6 µM | > 100 µM | > 100 µM | 66 µM | > 100 µM | 40.4 µM | > 100 µM | 78.8 µM | – | – | – | – | – | – |
| Cc1oc2c(cc(O)c3cc(O)ccc32)c2cccc1-2 | > 100 µM | > 100 µM | > 100 µM | > 100 µM | > 100 µM | > 100 µM | > 100 µM | > 100 µM | > 100 µM | > 100 µM | – | – | – | – | – | – |
